Earlier results on one molecule are cited in article PMC11912748, “Image-Guided Monitoring of Mitochondria and Blood–Brain Barrier Dysfunction in Amyotrophic Lateral Sclerosis Mice” (Biomaterials Research, 2025).

SMILES strings stand for the structures.

The conditions of the data set: in DMSO, cited from earlier work.

In the case of `CC1(C)C(/C=C/C=C/C=C/C=C2\N(CCCCS(=O)(=O)O)c3ccc4ccccc4c3C2(C)C)=[N+](CCCCS(=O)(=O)[O-])c2ccc3ccccc3c21` [ICG, indocyanine green], the Molar absorptivity is 232,000 M^−1 cm^−1. Moreover, under “reference standard”, the “QY (quantum yield)” value is 13%.
